Source: PubChem BioAssay AID2060605 (Molecular Pharmacology Branch, DTP, NCI, 2025)

Tested on: 947758-054-R-J2-PDC spheroid growth, percent test/control
Assay: Anticancer human tumor 947758-054-R-J2-PDC patient-derived colon adenocarcinoma cell line growth inhibition [CLK]
Conditions: spheroids with HUVEC and MSC; for IC50: curve of first compound; for viability, T/C: stronger effect = lower value
Excerpt: A high-throughput screen of multi-cell type tumor spheroids was designed to identify active combinations of […] and targeted small molecules. Complex spheroids include a stromal component modeled by human endothelial cells (HUVEC) and fibroblasts modeled by human mesenchymal stem cells (MSCs). The concentration ranges selected for each drug and investigational agent were based upon clinically achievable concentrations if the clinical Cmax of the agent was known.
Compounds. The drugs and investigational agents: cirtuvivint (SM08502; NSC835563), CC-671 (NSC850746), vemurafenib (NSC761431), tapotoclax (NSC804041), sotorasib (NSC818433), adagrasib (NSC831453), MRTX-1133 (NSC836407), BAY2416964 (NSC825713), copanlisib (NSC816437), inavolisib (NSC800729), abemaciclib (NSC768073), osimertinib (NSC779217), entinostat (NSC756642), eltanexor (KPT-8602, NSC794443), venetoclax (NSC766270), ceralasertib (NSC777638), bortezomib (NSC756655), olaparib (NSC753686), talazoparib (NSC767125), alisertib (NSC759677), peposertib (NSC802822), gemcitabine (NSC613327), 5-fluorouracil (NSC19893), SN-38 (NSC673596), oxaliplatin (NSC266046), paclitaxel (NSC125973), and doxorubicin (NSC123127), were obtained from the National Cancer Institute (NCI) Developmental Therapeutics Program Chemical Repository. The FDA-approved anticancer drug set is available from the Developmental Therapeutics Program at https://dtp.cancer.gov/organization/dscb/obtaining/available plates.htm. […] The stock solutions were prepared in dimethyl sulfoxide (DMSO, Sigma-Aldrich, St. Louis, MO, cat. D2650), except for the platinum complexes which were prepared in saline (Quality Biological, Gaithersburg, MD, cat. 114-055-101), at 800-fold the tested concentration and stored at -70 degrees C prior to their use. All drugs and investigational agents were tested over a range starting from a high concentration at or near the clinical Cmax and decreasing in half-log increments. If the clinical Cmax for an agent had not been determined, the highest concentration tested was 10 microM.
Cell Culture. All cells were maintained in an incubator at 37 degrees C and 5% CO2 with 95% humidity. The PDC lines were cultured according to standard operating procedures established by the NCI PDMR. Briefly, all PDCs were thawed and cultured in Matrigel-coated flasks prepared with a working solution of 1X Ham's F-12 nutrient mix, without supplementation (Invitrogen, Waltham, MA, cat. 11765054), 100 U/mL penicillin-streptomycin (Invitrogen, cat. 15140122), and 2.5% Matrigel (Corning Inc., Corning, NY, cat. 354248) for the first three passages. The 947758-054-R-J2-PDC line was cultured in 6B/Colon 1A media, which includes advanced DMEM/F-12 (Thermo Fisher Scientific, cat. 12634028), 10 mM HEPES (Thermo Fisher Scientific, cat. 15630080), 1X GlutaMAX supplement (Thermo Fisher Scientific, cat. 35050061), 0.1 mg/mL primocin (InvivoGen, cat. ant-pm-2), 10% defined fetal bovine serum, heat inactivated (HyClone Laboratories Inc., cat. SH30070.03HI), 1.25 mM N-Acetyl-L-cysteine (Sigma-Aldrich, cat. A9165), 10 mM nicotinamide (Sigma-Aldrich, cat. N0636), 1X B-27 supplement (Thermo Fisher Scientific, cat. 17504044), 1X N-2 supplement (Thermo Fisher Scientific, cat. 17502048), and 10 microM Y-27632 dihydrochloride (Tocris Bioscience, cat. 1254). The 876862-298-R-J1-PDC was cultured in 6E media, which includes all 6B/Colon 1A media components plus 50% L-WRN conditioned media (ATCC, cat. CRL-3276), 50 ng/mL recombinant human EGF recombinant protein (hEGF; Thermo Fisher Scientific, cat. PHG0311), 10 ng/mL recombinant human fibroblast growth factor 10 (hGFG-10; PeproTech, cat. 100-26), 1 ng/mL recombinant human fibroblast growth factor 2 (hFGF-2; PeproTech, cat. 100-18B), and 1 µM prostaglandin E2 (PGE2; Tocris, cat. 2296). The 227483-062-R1-J1-PDC line was cultured in Panc media, containing all 6E components except hFGF-2, with the addition of 500 nM SB-431542 (Selleckchem, cat. S1067) and 10 nM gastrin (Tocris, cat. 3006). […]
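Further: spheroids exposed to compounds for one week before readout.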
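Wherever viability, T/C is given: 100% = DMSO vehicle control wells.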

In the case of `NC(=O)C(=Cn1cnc(-c2cc(C(F)(F)F)cc(C(F)(F)F)c2)n1)c1cncnc1` + CN1CCN(c2cc(C(=O)Nc3cc4cc(-c5cnn(C)c5)ccc4cn3)ccn2)CC1, the IC50 (second compound 0.0316 µM) is reported as 78.5 nM, the IC50 (second compound 0.1 µM) is reported as < 9.49 nM and the IC50 (second compound 0.316 µM) is reported as < 9.49 nM. The IC50 (second compound 1 µM) was < 9.49 nM, the IC50 (second compound 3.16 µM) was < 9.49 nM and the IC50 (second compound 10 µM) was < 9.49 nM. It also gave a viability, T/C (second compound 0.0316 µM, first compound 0.00949 µM) of 195%, a viability, T/C (second compound 0.0316 µM, first compound 0.03 µM) of 224% and a viability, T/C (second compound 0.0316 µM, first compound 0.0949 µM) of 44.3%. For the same compound, the viability, T/C (second compound 0.0316 µM, first compound 0.3 µM) was 19%, the viability, T/C (second compound 0.0316 µM, first compound 0.949 µM) was 10.3% and the viability, T/C (second compound 0.0316 µM, first compound 3 µM) was 0.87%. It also gave a viability, T/C (second compound 0.1 µM, first compound 0.00949 µM) of 42.9%, a viability, T/C (second compound 0.1 µM, first compound 0.03 µM) of 24.9% and a viability, T/C (second compound 0.1 µM, first compound 0.0949 µM) of 16.4%. The viability, T/C (second compound 0.1 µM, first compound 0.3 µM) was 6.99%, the viability, T/C (second compound 0.1 µM, first compound 0.949 µM) was 0.38% and the viability, T/C (second compound 0.1 µM, first compound 3 µM) was 0.42%. It also gave a viability, T/C (second compound 0.316 µM, first compound 0.00949 µM) of 0.44%, a viability, T/C (second compound 0.316 µM, first compound 0.03 µM) of 0.27% and a viability, T/C (second compound 0.316 µM, first compound 0.0949 µM) of 0.21%. For the same compound, the viability, T/C (second compound 0.316 µM, first compound 0.3 µM) was 1.5%, the viability, T/C (second compound 0.316 µM, first compound 0.949 µM) was 0.15% and the viability, T/C (second compound 0.316 µM, first compound 3 µM) was 0.3%. For the same compound, the viability, T/C (second compound 1 µM, first compound 0.00949 µM) was 0.13%, the viability, T/C (second compound 1 µM, first compound 0.03 µM) was 0.18% and the viability, T/C (second compound 1 µM, first compound 0.0949 µM) was 0.39%. The viability, T/C (second compound 1 µM, first compound 0.3 µM) was 0.33%, the viability, T/C (second compound 1 µM, first compound 0.949 µM) was 1.84% and the viability, T/C (second compound 1 µM, first compound 3 µM) was 0.25%. It also gave a viability, T/C (second compound 3.16 µM, first compound 0.00949 µM) of 0.31%, a viability, T/C (second compound 3.16 µM, first compound 0.03 µM) of 0.76% and a viability, T/C (second compound 3.16 µM, first compound 0.0949 µM) of 0.81%. For the same compound, the viability, T/C (second compound 3.16 µM, first compound 0.3 µM) was 0.66%, the viability, T/C (second compound 3.16 µM, first compound 0.949 µM) was 1.31% and the viability, T/C (second compound 3.16 µM, first compound 3 µM) was 1.56%. It also gave a viability, T/C (second compound 10 µM, first compound 0.00949 µM) of 0.47%, a viability, T/C (second compound 10 µM, first compound 0.03 µM) of 0.74% and a viability, T/C (second compound 10 µM, first compound 0.0949 µM) of 1.04%. For the same compound, the viability, T/C (second compound 10 µM, first compound 0.3 µM) was 0.9%, the viability, T/C (second compound 10 µM, first compound 0.949 µM) was 1.38% and the viability, T/C (second compound 10 µM, first compound 3 µM) was 0.53%.
